Values of other authors, collected in patent publication US9241965B2, “Composition containing Prunus mume extract for external application to skin” (AMOREPACIFIC CORPORATION, priority 2010, dated 2016).

Molecular target: T1, TRPV1 (Homo sapiens, UniProt Q8NER1)
T1 construct: endogenous in cells; host or cells: HaCAT cells
Settings: skin temperature about 42° C.

T1 sequence (Q8NER1 whole entry, species assumed): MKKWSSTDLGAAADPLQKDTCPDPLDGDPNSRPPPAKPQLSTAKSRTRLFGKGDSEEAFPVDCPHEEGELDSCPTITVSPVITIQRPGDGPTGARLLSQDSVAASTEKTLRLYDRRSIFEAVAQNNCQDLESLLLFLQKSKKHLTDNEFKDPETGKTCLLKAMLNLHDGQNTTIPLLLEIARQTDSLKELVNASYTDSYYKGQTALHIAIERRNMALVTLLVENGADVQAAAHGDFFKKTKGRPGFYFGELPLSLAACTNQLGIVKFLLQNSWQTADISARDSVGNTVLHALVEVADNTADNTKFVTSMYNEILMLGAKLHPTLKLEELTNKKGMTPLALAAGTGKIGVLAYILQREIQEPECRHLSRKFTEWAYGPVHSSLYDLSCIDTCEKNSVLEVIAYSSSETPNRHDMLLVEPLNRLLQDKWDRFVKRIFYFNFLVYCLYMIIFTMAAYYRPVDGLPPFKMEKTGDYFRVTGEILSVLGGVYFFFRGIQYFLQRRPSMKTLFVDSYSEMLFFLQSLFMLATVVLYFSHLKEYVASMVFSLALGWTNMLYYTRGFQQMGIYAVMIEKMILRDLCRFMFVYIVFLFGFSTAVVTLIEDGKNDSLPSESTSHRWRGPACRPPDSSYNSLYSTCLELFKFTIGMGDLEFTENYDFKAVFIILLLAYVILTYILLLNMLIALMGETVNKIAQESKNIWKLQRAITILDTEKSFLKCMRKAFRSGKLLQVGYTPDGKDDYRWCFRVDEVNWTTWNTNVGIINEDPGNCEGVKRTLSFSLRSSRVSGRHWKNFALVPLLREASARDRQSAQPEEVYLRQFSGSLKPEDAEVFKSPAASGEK

Oc1cc2c(cc1O)CN(C(=S)NCCc1ccc(Cl)cc1)CCC2 [capsazepine]
rate of skin barrier recovery: restores the rate of skin barrier recovery to normal level
